Reference: PubChem BioAssay (NCI)
“And” between values parts separate entries of the source, which are not always exact repeats. Identical values can stand only once.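 Following 48 hours of exposure in 96-well plates, responses at five concentrations were used to interpolate endpoints linearly. GI50 is the concentration that inhibits growth by half. TGI denotes the concentration required for complete inhibition of growth.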

Tests used:
Assay in all cases: growth of human tumour cells (NCI), 48 h
A498 renal = test system: A498 renal
ACHN renal = test system: ACHN renal
EKVX NSCLC = test system: EKVX NSCLC
HCT-116 colon = test system: HCT-116 colon
HOP-62 NSCLC = test system: HOP-62 NSCLC
NCI-H522 lung = test system: NCI-H522 lung
SK-MEL-28 melanoma = test system: SK-MEL-28 melanoma
T-47D breast = test system: T-47D breast
U251 CNS = test system: U251 CNS
UACC-257 melanoma = test system: UACC-257 melanoma
UACC-62 melanoma = test system: UACC-62 melanoma
DLD-1 colon = test system: DLD-1 colon
XF 498 CNS = test system: XF 498 CNS

Question: Which TGI (A498 renal) does the source give for `CCn1c(=O)c2c3ccc(O)cc3[nH]c2c2ccc(O)cc21` here?
Answer: > 100 µM

Question: What about the TGI (ACHN renal) of the same compound?
Answer: > 100 µM

Question: And the TGI (EKVX NSCLC)?
Answer: > 100 µM

Question: And the TGI (HCT-116 colon)?
Answer: > 100 µM

Question: And the TGI (HOP-62 NSCLC)?
Answer: > 100 µM

Question: And the TGI (NCI-H522 lung)?
Answer: > 100 µM

Question: And the TGI (SK-MEL-28 melanoma)?
Answer: > 100 µM

Question: What about the TGI (T-47D breast) of the same compound?
Answer: > 100 µM

Question: What about the TGI (U251 CNS) of the same compound?
Answer: > 100 µM

Question: And the TGI (UACC-257 melanoma)?
Answer: > 100 µM

Question: What about the TGI (UACC-62 melanoma) of the same compound?
Answer: > 100 µM

Question: What does the source list for `CC(=O)OC1(C)CC(C)C(=O)C(C(O)CC2CC(=O)NC(=O)C2)C1` (stereo unspecified)?
Answer: TGI (A498 renal): 0.266 µM and 0.0863 µM; TGI (ACHN renal): 0.131 µM and 0.107 µM; TGI (EKVX NSCLC): 0.37 µM and 0.631 µM; TGI (HOP-62 NSCLC): 0.0683 µM; TGI (NCI-H522 lung): 0.146 µM; TGI (SK-MEL-28 melanoma): 0.134 µM and 0.688 µM; TGI (T-47D breast): 0.583 µM; TGI (U251 CNS): 21.3 µM; TGI (UACC-257 melanoma): 0.348 µM and 0.145 µM; TGI (UACC-62 melanoma): 0.0113 µM

Question: Which results are given for `Nc1n[nH]c(N)n1`?
Answer: TGI (A498 renal): > 10000 µM; TGI (ACHN renal): > 10000 µM; TGI (DLD-1 colon): > 10000 µM; TGI (EKVX NSCLC): > 7740 µM; TGI (HCT-116 colon): > 10000 µM; TGI (HOP-62 NSCLC): 3550 µM; TGI (NCI-H522 lung): 4640 µM; TGI (SK-MEL-28 melanoma): > 10000 µM; TGI (T-47D breast): > 10000 µM; TGI (U251 CNS): > 10000 µM; TGI (UACC-257 melanoma): > 9050 µM; TGI (UACC-62 melanoma): 7470 µM; TGI (XF 498 CNS): 2750 µM

Question: What does the source list for `NCCNc1ccc(NCCN)c2c1C(=O)c1c(O)ccc(O)c1C2=O`?
Answer: TGI (A498 renal): 0.37 µM; TGI (ACHN renal): 0.117 µM and 0.0596 µM; GI50 (DLD-1 colon): 0.069 µM; TGI (DLD-1 colon): 1.05 µM and 0.974 µM; GI50 (EKVX NSCLC): 0.112 µM; TGI (EKVX NSCLC): 1.3 µM and 0.435 µM; GI50 (HCT-116 colon): 0.0343 µM; TGI (HCT-116 colon): 0.52 µM and 0.446 µM; GI50 (HOP-62 NSCLC): 0.0189 µM; TGI (HOP-62 NSCLC): 0.147 µM and 0.0642 µM; GI50 (NCI-H522 lung): 0.018 µM; TGI (NCI-H522 lung): 0.467 µM and 0.15 µM; TGI (SK-MEL-28 melanoma): 2.28 µM and 2.15 µM; TGI (T-47D breast): 2.66 µM and 4.38 µM; GI50 (U251 CNS): 0.0238 µM; TGI (U251 CNS): 0.845 µM and 0.137 µM; TGI (UACC-257 melanoma): 3.11 µM and 4.1 µM; GI50 (UACC-62 melanoma): 0.0228 µM; TGI (UACC-62 melanoma): 0.89 µM and 0.313 µM; TGI (XF 498 CNS): 0.298 µM

Question: With `Oc1ccccc1CNCc1ccccc1O` as the compound, how does the TGI (A498 renal) read?
Answer: > 100 µM

Question: And the TGI (ACHN renal)?
Answer: > 100 µM

Question: And the TGI (EKVX NSCLC)?
Answer: > 100 µM

Question: And the TGI (HCT-116 colon)?
Answer: > 100 µM

Question: And the TGI (HOP-62 NSCLC)?
Answer: > 100 µM

Question: What about the TGI (NCI-H522 lung) of the same compound?
Answer: > 100 µM

Question: What about the TGI (SK-MEL-28 melanoma) of the same compound?
Answer: > 100 µM

Question: What about the TGI (T-47D breast) of the same compound?
Answer: > 100 µM

Question: What about the TGI (U251 CNS) of the same compound?
Answer: > 100 µM

Question: And the TGI (UACC-257 melanoma)?
Answer: > 100 µM

Question: What about the TGI (UACC-62 melanoma) of the same compound?
Answer: > 100 µM

Question: How did the TGI (ACHN renal) turn out when `CCN(CC)CCCNC(=O)c1ccccc1Nc1c(Cl)cccc1Cl` was run?
Answer: 21.8 µM

Question: What about the TGI (DLD-1 colon) of the same compound?
Answer: 23.8 µM

Question: And the TGI (EKVX NSCLC)?
Answer: 25 µM

Question: What about the TGI (HCT-116 colon) of the same compound?
Answer: 23.6 µM

Question: What about the TGI (HOP-62 NSCLC) of the same compound?
Answer: 24.2 µM

Question: And the TGI (SK-MEL-28 melanoma)?
Answer: 9.51 µM

Question: And the TGI (UACC-257 melanoma)?
Answer: 7.45 µM

Question: What about the TGI (UACC-62 melanoma) of the same compound?
Answer: 25.3 µM

Question: What about the TGI (XF 498 CNS) of the same compound?
Answer: 9.71 µM

Question: Which results are given for `CCCCCC1CC(C(C)=O)CN1c1ccc(F)cc1` (stereo unspecified)?
Answer: TGI (A498 renal): > 100 µM; TGI (ACHN renal): > 100 µM; TGI (DLD-1 colon): > 100 µM; TGI (EKVX NSCLC): > 100 µM; TGI (HCT-116 colon): > 100 µM; TGI (NCI-H522 lung): 56.5 µM; TGI (SK-MEL-28 melanoma): > 100 µM; TGI (U251 CNS): > 100 µM; TGI (UACC-257 melanoma): > 100 µM; TGI (XF 498 CNS): 52.5 µM

Question: `O=c1[nH]c(Br)nc2n[nH]nc12` was tested. Which TGI (A498 renal) did it give?
Answer: > 100 µM

Question: And the TGI (ACHN renal)?
Answer: > 100 µM

Question: And the TGI (EKVX NSCLC)?
Answer: > 100 µM

Question: What about the TGI (HCT-116 colon) of the same compound?
Answer: > 100 µM

Question: What about the TGI (HOP-62 NSCLC) of the same compound?
Answer: 94.8 µM

Question: What about the TGI (NCI-H522 lung) of the same compound?
Answer: > 100 µM

Question: And the TGI (T-47D breast)?
Answer: > 100 µM

Question: And the TGI (U251 CNS)?
Answer: > 100 µM

Question: What about the TGI (UACC-257 melanoma) of the same compound?
Answer: > 100 µM

Question: And the TGI (UACC-62 melanoma)?
Answer: > 100 µM

Question: What does the source list for `CCC/C=C/C=C\C(=O)O[C@@H]1[C@@H](C)[C@]2(O)[C@@H]3C=C(C)C(=O)[C@H]3CC(COC(C)=O)=C[C@H]2[C@@H]2C(C)(C)[C@]12OC(C)=O`?
Answer: TGI (A498 renal): 33.3 µM; TGI (DLD-1 colon): 57.2 µM; TGI (EKVX NSCLC): 105 µM; TGI (HCT-116 colon): 57.5 µM; TGI (HOP-62 NSCLC): 33.8 µM; TGI (NCI-H522 lung): > 89.6 µM; TGI (SK-MEL-28 melanoma): 86.7 µM; TGI (U251 CNS): 69.1 µM; TGI (UACC-257 melanoma): 91.5 µM; TGI (UACC-62 melanoma): 82.5 µM; TGI (XF 498 CNS): 16.7 µM

Question: How did the TGI (A498 renal) turn out when `CC(=O)C(C(=O)C(=O)Nc1cc(Cl)c(Cl)cc1Cl)c1csc(N)n1` (stereo unspecified) was run?
Answer: > 100 µM

Question: And the TGI (ACHN renal)?
Answer: > 100 µM

Question: And the TGI (DLD-1 colon)?
Answer: > 100 µM

Question: And the TGI (EKVX NSCLC)?
Answer: > 100 µM

Question: What about the TGI (HCT-116 colon) of the same compound?
Answer: > 100 µM

Question: And the TGI (HOP-62 NSCLC)?
Answer: > 100 µM

Question: What about the TGI (NCI-H522 lung) of the same compound?
Answer: > 100 µM

Question: And the TGI (SK-MEL-28 melanoma)?
Answer: > 100 µM

Question: What about the TGI (U251 CNS) of the same compound?
Answer: > 100 µM

Question: And the TGI (UACC-257 melanoma)?
Answer: > 100 µM

Question: What about the TGI (UACC-62 melanoma) of the same compound?
Answer: > 100 µM

Question: And the TGI (XF 498 CNS)?
Answer: > 100 µM

Question: How did the TGI (ACHN renal) turn out when `O=C(N/N=C/c1cc(Cl)cc(Cl)c1[O-])c1ccccc1O.O=C(N/N=C/c1cc(Cl)cc(Cl)c1[O-])c1ccccc1O.[Cu+2]` was run?
Answer: 1.57 µM

Question: And the GI50 (HCT-116 colon)?
Answer: 0.255 µM

Question: And the TGI (HCT-116 colon)?
Answer: 0.597 µM

Question: And the TGI (HOP-62 NSCLC)?
Answer: 0.901 µM

Question: And the TGI (NCI-H522 lung)?
Answer: 0.568 µM

Question: What about the TGI (SK-MEL-28 melanoma) of the same compound?
Answer: 8.79 µM

Question: And the TGI (U251 CNS)?
Answer: 1.34 µM

Question: And the TGI (UACC-257 melanoma)?
Answer: 0.914 µM

Question: What about the TGI (UACC-62 melanoma) of the same compound?
Answer: 0.819 µM

Question: What does the source list for `NC1C2C=CC(C2)C1C(=O)O` (stereo unspecified)?
Answer: TGI (A498 renal): > 100 µM; TGI (ACHN renal): > 100 µM; TGI (EKVX NSCLC): > 100 µM; TGI (HCT-116 colon): > 100 µM; TGI (HOP-62 NSCLC): > 100 µM; TGI (NCI-H522 lung): > 100 µM; TGI (SK-MEL-28 melanoma): > 100 µM; TGI (T-47D breast): > 100 µM; TGI (U251 CNS): > 100 µM; TGI (UACC-62 melanoma): > 100 µM
